Source: PubChem BioAssay AID2060616 (Molecular Pharmacology Branch, DTP, NCI, 2025)
“And” between values parts separate entries of the source, which are not always exact repeats. Equal values may be shown once.

System: 377384-186-R-J1-PDC complex spheroid viability
Test: Anticancer human tumor 377384-186-R-J1-PDC patient-derived pancreatic carcinoma cell line growth inhibition [CLK]
Details: for viability, T/C: stronger effect = lower value
Excerpt: A high-throughput screen of multi-cell type tumor spheroids was designed to identify active combinations of […] and targeted small molecules. Complex spheroids include a stromal component modeled by human endothelial cells (HUVEC) and fibroblasts modeled by human mesenchymal stem cells (MSCs). The concentration ranges selected for each drug and investigational agent were based upon clinically achievable concentrations if the clinical Cmax of the agent was known.
Compounds. The drugs and investigational agents: cirtuvivint (SM08502; NSC835563), CC-671 (NSC850746), vemurafenib (NSC761431), tapotoclax (NSC804041), sotorasib (NSC818433), adagrasib (NSC831453), MRTX-1133 (NSC836407), BAY2416964 (NSC825713), copanlisib (NSC816437), inavolisib (NSC800729), abemaciclib (NSC768073), osimertinib (NSC779217), entinostat (NSC756642), eltanexor (KPT-8602, NSC794443), venetoclax (NSC766270), ceralasertib (NSC777638), bortezomib (NSC756655), olaparib (NSC753686), talazoparib (NSC767125), alisertib (NSC759677), peposertib (NSC802822), gemcitabine (NSC613327), 5-fluorouracil (NSC19893), SN-38 (NSC673596), oxaliplatin (NSC266046), paclitaxel (NSC125973), and doxorubicin (NSC123127), were obtained from the National Cancer Institute (NCI) Developmental Therapeutics Program Chemical Repository. The FDA-approved anticancer drug set is available from the Developmental Therapeutics Program at https://dtp.cancer.gov/organization/dscb/obtaining/available plates.htm. […] The stock solutions were prepared in dimethyl sulfoxide (DMSO, Sigma-Aldrich, St. Louis, MO, cat. D2650), except for the platinum complexes which were prepared in saline (Quality Biological, Gaithersburg, MD, cat. 114-055-101), at 800-fold the tested concentration and stored at -70 degrees C prior to their use. All drugs and investigational agents were tested over a range starting from a high concentration at or near the clinical Cmax and decreasing in half-log increments. If the clinical Cmax for an agent had not been determined, the highest concentration tested was 10 microM.
Cell Culture. All cells were maintained in an incubator at 37 degrees C and 5% CO2 with 95% humidity. The PDC lines were cultured according to standard operating procedures established by the NCI PDMR. Briefly, all PDCs were thawed and cultured in Matrigel-coated flasks prepared with a working solution of 1X Ham's F-12 nutrient mix, without supplementation (Invitrogen, Waltham, MA, cat. 11765054), 100 U/mL penicillin-streptomycin (Invitrogen, cat. 15140122), and 2.5% Matrigel (Corning Inc., Corning, NY, cat. 354248) for the first three passages. The 947758-054-R-J2-PDC line was cultured in 6B/Colon 1A media, which includes advanced DMEM/F-12 (Thermo Fisher Scientific, cat. 12634028), 10 mM HEPES (Thermo Fisher Scientific, cat. 15630080), 1X GlutaMAX supplement (Thermo Fisher Scientific, cat. 35050061), 0.1 mg/mL primocin (InvivoGen, cat. ant-pm-2), 10% defined fetal bovine serum, heat inactivated (HyClone Laboratories Inc., cat. SH30070.03HI), 1.25 mM N-Acetyl-L-cysteine (Sigma-Aldrich, cat. A9165), 10 mM nicotinamide (Sigma-Aldrich, cat. N0636), 1X B-27 supplement (Thermo Fisher Scientific, cat. 17504044), 1X N-2 supplement (Thermo Fisher Scientific, cat. 17502048), and 10 microM Y-27632 dihydrochloride (Tocris Bioscience, cat. 1254). The 876862-298-R-J1-PDC was cultured in 6E media, which includes all 6B/Colon 1A media components plus 50% L-WRN conditioned media (ATCC, cat. CRL-3276), 50 ng/mL recombinant human EGF recombinant protein (hEGF; Thermo Fisher Scientific, cat. PHG0311), 10 ng/mL recombinant human fibroblast growth factor 10 (hGFG-10; PeproTech, cat. 100-26), 1 ng/mL recombinant human fibroblast growth factor 2 (hFGF-2; PeproTech, cat. 100-18B), and 1 µM prostaglandin E2 (PGE2; Tocris, cat. 2296). The 227483-062-R1-J1-PDC line was cultured in Panc media, containing all 6E components except hFGF-2, with the addition of 500 nM SB-431542 (Selleckchem, cat. S1067) and 10 nM gastrin (Tocris, cat. 3006). […]

[1] = curve of first compound, second compound 0.0316 µM
[2] = curve of first compound, second compound 0.1 µM
[3] = curve of first compound, second compound 0.316 µM
[4] = curve of first compound, second compound 1 µM
[5] = curve of first compound, second compound 3.16 µM
[6] = curve of first compound, second compound 10 µM
[7] = second compound 0.0316 µM, first compound 0.0316 µM
[8] = second compound 0.0316 µM, first compound 0.1 µM
[9] = second compound 0.0316 µM, first compound 0.316 µM
[10] = second compound 0.0316 µM, first compound 1 µM
[11] = second compound 0.0316 µM, first compound 3.16 µM
[12] = second compound 0.0316 µM, first compound 10 µM
[13] = second compound 0.1 µM, first compound 0.0316 µM
[14] = second compound 0.1 µM, first compound 0.1 µM
[15] = second compound 0.1 µM, first compound 0.316 µM
[16] = second compound 0.1 µM, first compound 1 µM
[17] = second compound 0.1 µM, first compound 3.16 µM
[18] = second compound 0.1 µM, first compound 10 µM
[19] = second compound 0.316 µM, first compound 0.0316 µM
[20] = second compound 0.316 µM, first compound 0.1 µM
[21] = second compound 0.316 µM, first compound 0.316 µM
[22] = second compound 0.316 µM, first compound 1 µM
[23] = second compound 0.316 µM, first compound 3.16 µM
[24] = second compound 0.316 µM, first compound 10 µM
[25] = second compound 1 µM, first compound 0.0316 µM
[26] = second compound 1 µM, first compound 0.1 µM
[27] = second compound 1 µM, first compound 0.316 µM
[28] = second compound 1 µM, first compound 1 µM
[29] = second compound 1 µM, first compound 3.16 µM
[30] = second compound 1 µM, first compound 10 µM
[31] = second compound 3.16 µM, first compound 0.0316 µM
[32] = second compound 3.16 µM, first compound 0.1 µM
[33] = second compound 3.16 µM, first compound 0.316 µM
[34] = second compound 3.16 µM, first compound 1 µM
[35] = second compound 3.16 µM, first compound 3.16 µM
[36] = second compound 3.16 µM, first compound 10 µM
[37] = second compound 10 µM, first compound 0.0316 µM
[38] = second compound 10 µM, first compound 0.1 µM
[39] = second compound 10 µM, first compound 0.316 µM
[40] = second compound 10 µM, first compound 1 µM
[41] = second compound 10 µM, first compound 3.16 µM
[42] = second compound 10 µM, first compound 10 µM
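Also: spheroids exposed to agents for 7 days before reading.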
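For viability, T/C in this document: luminescence signal used as a stand-in for viable cells.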

Structure (SMILES): CC(Nc1ccc2c(c1)OCCn1cc(N3C(=O)OCC3C(F)F)nc1-2)C(N)=O (stereo not given) + CN1CCN(c2cc(C(=O)Nc3cc4cc(-c5cnn(C)c5)ccc4cn3)ccn2)CC1
- IC50 [1]: 5170 nM
- IC50 [2]: 1460 nM
- IC50 [3]: < 31.6 nM
- IC50 [4]: < 31.6 nM
- IC50 [5]: < 31.6 nM
- IC50 [6]: < 31.6 nM
- viability, T/C [7]: 85.8%
- viability, T/C [8]: 83.1%
- viability, T/C [9]: 72.2%
- viability, T/C [10]: 69.4%
- viability, T/C [11]: 53.4%
- viability, T/C [12]: 43.4%
- viability, T/C [13]: 90%
- viability, T/C [14]: 79.3%
- viability, T/C [15]: 50.6%
- viability, T/C [16]: 57.4%
- viability, T/C [17]: 50.5%
- viability, T/C [18]: 39.4%
- viability, T/C [19]: 23.5%
- viability, T/C [20]: 23.6%
- viability, T/C [21]: 18.5%
- viability, T/C [22]: 19.8%
- viability, T/C [23]: 18.3%
- viability, T/C [24]: 18.4%
- viability, T/C [25]: 2.08%
- viability, T/C [26]: 1.88%
- viability, T/C [27]: 2.17%
- viability, T/C [28]: 1.6%
- viability, T/C [29]: 1.66%
- viability, T/C [30]: 2.21%
- viability, T/C [31]: 0.29%
- viability, T/C [32]: 0.96%
- viability, T/C [33]: 0.62%
- viability, T/C [34]: 0.3%
- viability, T/C [35]: 0.47%
- viability, T/C [36]: 0.64%
- viability, T/C [37]: 0.32%
- viability, T/C [38]: 1.36%
- viability, T/C [39]: 0.49%
- viability, T/C [40]: 0.37%
- viability, T/C [41]: 0.69%
- viability, T/C [42]: 0.37%

Structure (SMILES): COc1cccc2c1C(=O)c1c(O)c3c(c(O)c1C2=O)CC(O)(C(=O)CO)CC3OC1CC(N)C(O)C(C)O1 (stereo not given) + CN1CCN(c2cc(C(=O)Nc3cc4cc(-c5cnn(C)c5)ccc4cn3)ccn2)CC1
- IC50 [1]: < 31.6 nM
- IC50 [2]: < 31.6 nM
- IC50 [3]: < 31.6 nM
- IC50 [4]: < 31.6 nM
- IC50 [5]: < 31.6 nM
- IC50 [6]: < 31.6 nM
- viability, T/C [7]: 16.3%
- viability, T/C [8]: 7.2%
- viability, T/C [9]: 1.82%
- viability, T/C [10]: 0.52%
- viability, T/C [11]: 3.08%
- viability, T/C [12]: 7.38%
- viability, T/C [13]: 17.7%
- viability, T/C [14]: 5.86%
- viability, T/C [15]: 1.2%
- viability, T/C [16]: 0.36%
- viability, T/C [17]: 4.01%
- viability, T/C [18]: 8.5%
- viability, T/C [19]: 15.2%
- viability, T/C [20]: 4.88%
- viability, T/C [21]: 0.54%
- viability, T/C [22]: 0.77%
- viability, T/C [23]: 3.95%
- viability, T/C [24]: 9.46%
- viability, T/C [25]: 0.41%
- viability, T/C [26]: 0.53%
- viability, T/C [27]: 0.23%
- viability, T/C [28]: 1.24%
- viability, T/C [29]: 3.93%
- viability, T/C [30]: 8.63%
- viability, T/C [31]: 0.22%
- viability, T/C [32]: 0.41%
- viability, T/C [33]: 1.02%
- viability, T/C [34]: 1.45%
- viability, T/C [35]: 6.27%
- viability, T/C [36]: 9.38%
- viability, T/C [37]: 0.49%
- viability, T/C [38]: 0.33%
- viability, T/C [39]: 1.94%
- viability, T/C [40]: 0.34%
- viability, T/C [41]: 0.53%
- viability, T/C [42]: 0.18%

Structure (SMILES): O=C(c1cc(Cc2n[nH]c(=O)c3ccccc23)ccc1F)N1CCN(C(=O)C2CC2)CC1
- viability, T/C (compound 0.0316 µM): 75.9% and 81.2%
- viability, T/C (compound 0.1 µM): 78.6% and 74%
- viability, T/C (compound 0.316 µM): 73.8% and 82.2%
- viability, T/C (compound 1 µM): 74.3% and 63.9%
- viability, T/C (compound 3.16 µM): 65.9% and 51.8%
- viability, T/C (compound 10 µM): 43.2% and 39%
- IC50 (curve of compound): 7100 nM and 3220 nM

Structure (SMILES): Nc1ccccc1NC(=O)c1ccc(CNC(=O)OCc2cccnc2)cc1
- viability, T/C (compound 0.0316 µM): 85.8% and 79.5%
- viability, T/C (compound 0.1 µM): 85.5% and 77.1%
- viability, T/C (compound 0.316 µM): 65.3% and 57.9%
- viability, T/C (compound 1 µM): 35.8% and 30.4%
- viability, T/C (compound 3.16 µM): 13.3% and 12.8%
- viability, T/C (compound 10 µM): 2.14% and 1.31%
- IC50 (curve of compound): 589 nM and 452 nM

Structure (SMILES): Nc1ccccc1NC(=O)c1ccc(CNC(=O)OCc2cccnc2)cc1 + CN1CCN(c2cc(C(=O)Nc3cc4cc(-c5cnn(C)c5)ccc4cn3)ccn2)CC1
- IC50 [1]: 780 nM
- IC50 [2]: 822 nM
- IC50 [3]: < 31.6 nM
- IC50 [4]: < 31.6 nM
- IC50 [5]: < 31.6 nM
- IC50 [6]: < 31.6 nM
- viability, T/C [7]: 103%
- viability, T/C [8]: 90%
- viability, T/C [9]: 76.3%
- viability, T/C [10]: 42.4%
- viability, T/C [11]: 16.2%
- viability, T/C [12]: 1.31%
- viability, T/C [13]: 109%
- viability, T/C [14]: 103%
- viability, T/C [15]: 90.8%
- viability, T/C [16]: 38.9%
- viability, T/C [17]: 17.7%
- viability, T/C [18]: 0.84%
- viability, T/C [19]: 30.4%
- viability, T/C [20]: 28.1%
- viability, T/C [21]: 29.1%
- viability, T/C [22]: 19%
- viability, T/C [23]: 3.98%
- viability, T/C [24]: 0.15%
- viability, T/C [25]: 1.55%
- viability, T/C [26]: 1.77%
- viability, T/C [27]: 1.31%
- viability, T/C [28]: 0.3%
- viability, T/C [29]: 0.25%
- viability, T/C [30]: 0.12%
- viability, T/C [31]: 0.38%
- viability, T/C [32]: 0.95%
- viability, T/C [33]: 0.9%
- viability, T/C [34]: 0.39%
- viability, T/C [35]: 0.52%
- viability, T/C [36]: 0.62%
- viability, T/C [37]: 0.58%
- viability, T/C [38]: 0.42%
- viability, T/C [39]: 0.45%
- viability, T/C [40]: 0.3%
- viability, T/C [41]: 0.62%
- viability, T/C [42]: 0.76%
